From patent publication US20090028991A1, “Lactobacillus buchneri strain LN1284 and its use to improve aerobic stability of silage” (Pioneer Hi-Bred International, Inc., priority 2006, published 2009)

Test system: grass silage
Test: Aerobic stability of grass silage (PVC silos, method of Honig)
Design: species or system ryegrass
Description: Second cut ryegrass was harvested at PLNC. The grass was determined to have an approximate dry matter of 35%.
Inoculation: Individual strains were supplied as fresh grown overnight culture. Cultures were adjusted to a standard concentration of 5.0×10^7 CFU/mL and applied using a syringe at a rate of 2.2 mL/kg of forage. The application rate for all strains was 1.1×10^5 CFU/g forage. Propionic acid (88%) was applied at a rate of 4.4 mL/kg fresh forage.
PVC Silos: PVC silos were filled at a packing density of 0.288 kg DM/silo (100 kg DM/m^3); approximately 0.82-0.95 kg/silo. Silos were air infused for 24 hours on days 28 and 42, and opened after 50-60 days of ensiling.
Aerobic Stability: The method of Honig (Proc. Of the Eurobac. Conf., P. Lingvall and S. Lindgren (ed.) (12-16 Aug. 1986) Swed. Univ. of Agric. Sci. Grass and Forage Report No. 3-1990. Pp. 76-81. Uppsala, Sweden.) was used for measuring aerobic stability (see Table 2). ROT is defined as the time, in hours, for the silage to heat 1.7° C. after exposure to air. Cumm_DD is the integral value of the area between the time ROT is attained and the end of the experiment. Aerobic dry matter loss (% dry matter) was determined relating the increase in temperature and the time to energy losses occurring in the silage.

SMILES: CCC(=O)O [Propionic Acid, Propionic acid]
- Aerobic deterioration versus control grass silages: significantly less aerobic deterioration than the control
